Data on 63 compounds can be found in the COVID Moonshot data (paper PMC7615835).

Structures are written as SMILES. pIC50: −log10 of the molar value. Values joined by “and” are separate entries in the source; they are usually repeats but may differ in a detail not shown here. Equal values may be shown once. Some results are limits rather than exact numbers.

For the test, the target named is SARS-CoV-2 Main Protease (SARS-CoV-2) (UniProt P0DTD1).
A word on the pIC50: it is −log10 of the IC50, conventionally taken in molar units. The low end stands for a large IC50, the high end for a small IC50. In turn, `O=C(Nc1cncc2c1CCCC2)[C@H]1CNS(=O)(=O)c2ccc(Cl)cc21` (stereo in doubt) gave a negative-log IC50 (pIC50) of 6.14.

With `O=C(Nc1cncc2ccccc12)C1CCOc2c(OCc3cccnc3)cc(Cl)cc21` (stereo not drawn), the pIC50 was 4.60 and < 5.00. In turn, `O=C(Nc1cncc2ccccc12)C(NCC1CC1)c1ccc(Cl)c(Cl)c1` (stereo not drawn) had a negative logarithm of the IC50 (pIC50) of 5.76. The result for `Cn1ccc2cc(N(C(=O)c3cnc[nH]3)C(C(=O)NCCc3cccc(F)c3)c3cccnc3)ccc21` (stereo not drawn) reads less than 4.00; that for `Cn1cnc(C(=O)N(c2ccc(C(C)(C)C)cc2)C(C(=O)NCCc2cccc(F)c2)c2cccnc2)n1` (stereo not drawn), 4.13; that for `CNC(=O)Nc1ccc(N(C(=O)c2cocn2)C(C(=O)NCCc2cccc(F)c2)c2cccnc2)cc1` (stereo not drawn), less than 4.00. In the case of `CS(=O)(=O)c1ncc(Cl)c(C(=O)Nc2ccccc2Cc2ccccc2)n1` it was 6.33 and 6.27; in that of `CC(C)(C)c1ccc(N(C(=O)c2cn3ccccc3n2)C(C(=O)NCCc2cccc(F)c2)c2cccnc2)cc1` (stereo not drawn), 4.74. In the case of `C[C@]1(C(=O)Nc2cncc3ccccc23)CCNc2cc(Cl)c(Cl)cc21` (stereo in doubt) it was 4.01.

`O=C(NCCc1cccc(F)c1)C(c1cccnc1)N(C(=O)c1cocn1)c1ccc2scnc2c1` (stereo not drawn) had a pIC50 of 4.08. As to `O=C(COc1cccc(Cl)c1)Nc1cncc2ccccc12`, the negative logarithm of the IC50 (pIC50) is 4.95. In the case of `CN(CCO)S(=O)(=O)N1Cc2ccc(Cl)cc2C2(CCN(c3cncc4ccccc34)C2=O)C1` (stereo not drawn) it was 6.16; in that of `O=C(NCCO)c1ccc(N(C(=O)c2cocn2)C(C(=O)NCCc2cccc(F)c2)c2cccnc2)cc1` (stereo not drawn), less than 4.00; in that of `CCC(C(=O)O)N1CCCC(NC(=O)c2ccc3ccccc3c2)C1` (stereo not drawn), less than 4.00. In the case of `C=CC(=O)N(c1ccc(C2(C)CC2)cc1)C(C(=O)Nc1ccc(Br)cc1)c1cccnc1` (stereo not drawn) it was 4.08 and 4.09; in that of `CCOC(=O)N1Cc2ccc(Cl)cc2C(C(=O)Nc2cncc3ccccc23)C1` (stereo not drawn), 6.63. In the case of `Cc1sc(Nc2cc(Cl)cc(CC(=O)Nc3cncc4ccccc34)c2)nc1-c1ccc(Cl)cc1` it was 5.55; in that of `COc1ccc(Nc2cc(Cl)cc(CC(=O)Nc3cncc4ccccc34)c2)cc1C(F)(F)F`, 5.72. As for `CC(C)c1cccc(C(C)C)c1Nc1cc(Cl)cc(CC(=O)Nc2cncc3ccccc23)c1`, the pIC50 was 5.74.

As for `Nc1cncc2c1CCCN2C(=O)Cc1cccc(Cl)c1`, the pIC50 was 4.59 and 4.38.

For `O=C(Cc1cc(Cl)cc(-c2nnc[nH]2)c1)Nc1cncc2ccccc12`, the negative logarithm of the IC50 (pIC50) is 5.28.

`C[C@H](Nc1cc(Cl)cc(CC(=O)Nc2cncc3ccccc23)c1)c1ccc([N+](=O)[O-])cc1` (stereo in doubt) had a negative-log IC50 (pIC50) of 5.84.

Regarding `CC(=O)N1CCN(CC(=O)Nc2cnccc2-c2ccccc2)CC1`, the pIC50 is less than 4.00. Compound `O=C(Cc1cc(Cl)cc(N2CCC(C(F)(F)F)CC2)c1)Nc1cncc2ccccc12` gave a negative-log IC50 (pIC50) of 5.84.

`CC(C)(C)c1ccc(N(C(=O)c2ccno2)C(C(=O)NCCc2cccc(F)c2)c2cccnc2)cc1` (stereo not drawn): the pIC50 was 5.95. The result for `COc1ccncc1NC(=O)Cc1cccc(Cl)c1` reads 4.67; that for `CC1(CS(=O)(=O)N2Cc3ccc(Cl)cc3C(C(=O)Nc3cncc4cc(S(C)(=O)=O)ccc34)C2)CS(=O)(=O)C1` (stereo not drawn), 7.08 and 6.83; that for `Cn1c(=O)oc2cc(S(=O)(=O)Nc3ccc4ncccc4c3)ccc21`, less than 4.00. In the case of `O=C(NCCc1cccc(F)c1)C(c1cccnc1)N(C(=O)c1cnc[nH]1)C1CCCC2(CCC2)C1` (stereo not drawn) it was less than 4.00. The result for `Cc1cc2c(cc1S(=O)(=O)N1CCN(c3ccccc3)CC1)OCO2` reads less than 4.00; that for `COc1ccc(C(Cc2cnn(C)c2)C(=O)Nc2c[nH]c3ccccc23)cc1` (stereo not drawn), less than 4.00.

Compound `CNC(=O)CN1Cc2ccc(Cl)cc2C(C(=O)Nc2cncc3ccc(C(C)(C)O)cc23)C1` (stereo not drawn) showed a negative-log IC50 (pIC50) of 6.25. Regarding `O=C(Cc1cccc(C(F)(F)F)c1)Nc1cncc2ccccc12`, the pIC50 was 5.16.

In turn, `O=C(Cc1cc(Cl)cc(Nc2ccc([N+](=O)[O-])c3ccccc23)c1)Nc1cncc2ccccc12` showed a pIC50 of 5.67. In the case of `O=C(CC1(C(=O)Nc2cncc3ccccc23)CCOc2ccc(Cl)cc21)N1CCCC1c1nn[nH]n1` (stereo not drawn) it was 5.10. The result for `COc1ccc2c(NC(=O)Cc3cccc(Cl)c3)noc2c1` reads less than 4.00. In the case of `Cc1cc(Nc2cc(Cl)cc(CC(=O)Nc3cncc4ccccc34)c2)cc(C)c1Br` it was 5.67; in that of `CC(NC(=O)c1cc2n(n1)CCO2)(C(=O)Nc1cncc2ccccc12)c1ccc(Cl)c(Cl)c1` (stereo not drawn), 5.16 and 4.98. The compound `O=C1NCC(C(=O)Nc2cncc3ccccc23)c2cc(F)cc(F)c21` (stereo not drawn) showed a pIC50 of 5.76. The result for `O=C1NC(c2ccc(Cl)c(Cl)c2)C(=O)N1c1cncc2ccccc12` (stereo not drawn) reads 5.07. In the case of `O=C(NNc1cc(O)nc2ncccc12)c1ccc2[nH]ccc2c1` it was less than 4.00; in that of `CC(=O)NCC1(C(=O)Nc2cncc3ccccc23)CCOc2ccc(Cl)cc21` (stereo not drawn), 5.48. The result for `Cc1nc(CN2C(=O)C(=O)c3cc(Br)ccc32)cs1` reads less than 4.00. The compound `CNC(=O)N1CCc2ccc(Cl)cc2C1C(=O)Nc1cncc2ccccc12` (stereo not drawn) had a negative-log IC50 (pIC50) of 5.61. In the case of `Cc1ccncc1C(C(=O)NCCc1cccc(F)c1)N(C(=O)c1cocn1)c1ccc(C(C)(C)C)cc1` (stereo not drawn) it was 6.19; in that of `CC(C)S(=O)(=O)c1ccc(N(C(=O)c2cocn2)C(C(=O)NCCc2cccc(F)c2)c2cccnc2)cc1` (stereo not drawn), 4.18. In the case of `O=C(C1CCOc2cc(Cl)ccc21)N(Cc1c[nH]c(=O)[nH]c1=O)c1cncc2ccccc12` (stereo not drawn) it was 5.15; in that of `COCOc1ccc(N(C(=O)c2cocn2)C(C(=O)NCCc2cccc(F)c2)c2cccnc2)cc1` (stereo not drawn), 4.88. In the case of `N#CC1(CS(=O)(=O)N2Cc3ccc(Cl)cc3C3(CCN(c4cncc5ccc(OCCN6CCOCC6)cc45)C3=O)C2)CC1` (stereo not drawn) it was 6.73. `O=C(NCCc1cccc(F)c1)C(c1cccnc1)N(C(=O)c1cocn1)C1CCCOC1` (stereo not drawn) gave a negative-log IC50 (pIC50) of less than 4.00. In the case of `O=C(Nc1cncc2ccc(C(F)(F)F)cc12)C1CCOc2ccc(Cl)cc21` (stereo not drawn) it was less than 4.00; in that of `O=C(c1ccc(N2CCCC2)nc1)N1CCCC(c2ccn[nH]2)C1` (stereo not drawn), less than 4.00. The result for `C[n+]1ccn(CCc2cccc(Cl)c2)c1C#N` reads less than 4.00; that for `Cn1ncc2c(NCc3ccc4cccnc4c3)ncnc21`, less than 4.00. In the case of `COc1cc(CN2CCN(C(=O)CCl)CC2)c2ccccc2c1` it was 5.56. Regarding `O=C(Cc1cc(Cl)cc(Nc2c(F)c(F)cc(F)c2F)c1)Nc1cncc2ccccc12`, the pIC50 was 5.69.

`O=C(Nc1nncn1C1CC1)C1CCOc2ccc(Cl)cc21` (stereo not drawn): the pIC50 was 6.29 and 6.16. The result for `O=C(NCCc1cccc(F)c1)C(c1cccnc1)N(C(=O)c1ccco1)c1cccc(CSC2CCOCC2)c1` (stereo not drawn) reads less than 4.00; that for `CNC(=O)CN1Cc2ccc(Cl)cc2C(C(=O)Nc2cncc3cc(COC)ccc23)C1` (stereo not drawn), 6.92. `CC1CN(C(=O)CC2(C(=O)Nc3cncc4ccccc34)CCOc3ccc(Cl)cc32)CCN1CCO` (stereo not drawn) gave a pIC50 of less than 4.00. The compound `Cc1ccccc1C(C)N(C(=O)c1cocn1)C(C(=O)NCCc1cccc(F)c1)c1cccnc1` (stereo not drawn) had a pIC50 of less than 4.00. The compound `Cn1cc(NC(=O)Cc2cccc(Cl)c2)c2ccccc2c1=O` gave a negative logarithm of the IC50 (pIC50) of less than 4.00. For `CC(C)(C)c1ccc(N(C(=O)c2n[nH]c(=O)[nH]c2=O)C(C(=O)NCCc2cccc(F)c2)c2cccnc2)cc1` (stereo not drawn), the negative logarithm of the IC50 (pIC50) was less than 4.00.
